Measured values reported in patent publication US20260167671A1, “IMMUNOMODULATORS” (Bristol-Myers Squibb Company, priority 2021, published 2026).
Read-outs that look alike come from different tables or passages of the source.

Target: T1, human PD-L1 (293T-hPD-L1 cells; binding of PE-labeled PD-1-Ig) (Homo sapiens, UniProt Q9NZQ7)
T1 construct: expressed in transfected cells; host or cells: 293T (human embryonic kidney) stably over-expressing human PD-L1
Assay: 293T-hPD-L1 Cell Binding High-Content Screening Assay (CBA)
Procedure: 293T-hPD-L1 Cell Binding High-Content Screening Assay (CBA).
Phycoerythrin (PE) was covalently linked to the Ig epitope tag of human PD-1-Ig and fluorescently-labeled PD-1-Ig was used for binding studies with a human embryonic kidney cell line (293T) stably over-expressing human PD-L1 (293T-hPD-L1). Briefly, 2×10^3 293T-hPD-L1 cells were seeded into 384 well plates in 20 μl of DMEM supplemented with 10% fetal calf serum and cultured overnight. 125 nl of compound was added to cells followed by 5 μl of PE-labeled PD-1-Ig (0.5 nM final), diluted in DMEM supplemented with 10% fetal calf serum, followed by incubation at 37° C. for 1 h. Cells were washed 3× in 100 μl dPBS followed by fixation with 30 μl of 4% paraformaldehyde in dPBS containing 10 μg/ml Hoechst 33342 for 30 min at room temperature. Cells were washed 3× in 100 μl of dPBS followed by final addition of 15 μl of dPBS. Data was collected and processed using a Cell Insight NXT High Content Imager and associated software.
Table 1 lists the IC50 values for representative examples of this disclosure measured in the 293T-hPD-L1 Cell Binding High-Content Screening Assay.

T1 sequence (Q9NZQ7 19-290): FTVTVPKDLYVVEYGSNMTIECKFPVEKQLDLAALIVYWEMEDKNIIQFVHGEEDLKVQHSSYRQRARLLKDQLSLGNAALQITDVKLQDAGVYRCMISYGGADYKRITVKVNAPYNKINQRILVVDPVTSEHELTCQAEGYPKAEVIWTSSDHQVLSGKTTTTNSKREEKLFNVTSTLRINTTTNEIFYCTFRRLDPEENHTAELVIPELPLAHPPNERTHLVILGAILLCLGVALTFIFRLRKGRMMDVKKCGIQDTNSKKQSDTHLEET

| SMILES | IC50 [nM] | IC50 (293T cells stably over-expressing human PD-L1, PE-labeled human PD-1-Ig 0.5 nM final, 37° C. for 1 h, read-out: 293T-hPD-L1_PD-1 IC50) [nM] |
| --- | --- | --- |
| CCCC[C@H]1C(=O)N(C)[C@@H](CCCC)C(=O)N[C@@H](CC(C)C)C(=O)N[C@H](C(=O)NCC(=O)N[C@@H](Cc2cn(CCOCCOCCOCCOCCOCCOCCOCCOCCOCCOCCOCCNC(=O)CC[C@H](NC(=O)CCCCCCCCCCCOc3ccc(C(=O)O)cc3)C(=O)O)nn2)C(=O)O)CSCC(=O)N[C@@H](Cc2ccc(O)cc2)C(=O)N(C)[C@@H](C)C(=O)N[C@@H](CC(N)=O)C(=O)N2CCC[C@H]2C(=O)N[C@@H](CN)C(=O)N[C@@H](CC(C)C)C(=O)N2C[C@H](O)C[C@H]2C(=O)N[C@@H](Cc2c[nH]c3ccccc23)C(=O)N[C@@H](CCN)C(=O)N[C@@H](Cc2cn(CC(=O)O)c3ccccc23)C(=O)N1C [Example 1003] | 3.6 |  |
| CCCC[C@H]1C(=O)N(C)[C@@H](CCCC)C(=O)N[C@@H](CC(C)C)C(=O)N[C@H](C(=O)NCC(=O)N[C@@H](Cc2cn(CCOCCOCCOCCOCCOCCOCCOCCOCCOCCOCCOCCNC(=O)CC[C@H](NC(=O)CCCCCCCCCOc3ccc(C(=O)O)cc3)C(=O)O)nn2)C(=O)O)CSCC(=O)N[C@@H](Cc2ccc(O)cc2)C(=O)N(C)[C@@H](C)C(=O)N[C@@H](CC(N)=O)C(=O)N2CCC[C@H]2C(=O)N[C@@H](CN)C(=O)N[C@@H](CC(C)C)C(=O)N2C[C@H](O)C[C@H]2C(=O)N[C@@H](Cc2c[nH]c3ccccc23)C(=O)N[C@@H](CCN)C(=O)N[C@@H](Cc2cn(CC(=O)O)c3ccccc23)C(=O)N1C [Example 1001] |  | 3.3 |
